Where two headings read alike, the source gives them in different places.
What was measured:
[1] = test system: Xenograft tumor models (HT-29, H460, Molt-4, PC-3M, HL60); experiment: Xenograft studies with human tumor cell lines; type: in vivo, BALB/c nude mice; details: i.p, qd, 21 days, dosage from 12.5 mg/kg to 100 mg/kg; significant with p<0.05 (T-test)
Protocol: Female BALB/c nude mice from SHANGHAI SLAC LABORATORY ANIMAL CO with age of 5 to 6 weeks and body weight of 19 to 20 g were used in the study. Autoclaved water and irradiated food were provided ad libitum, and animals were maintained on a 12-hour light and 12-hour dark cycle. Cages, bedding, and water bottles were autoclaved before use and changed weekly. The health of all animals was determined by daily gross observation of experimental animals, and analyses of blood samples of sentinel animals housed on shared shelf racks. All animals were allowed to acclimate and recover from any shipping-related stress for a minimum of 72 hours before experimental use. All animal experiments were conducted according to the guidelines of Chinese.
Xenograft tumor models were established with human tumor cell lines. […] Tumor growth was monitored twice per week until the tumor reached to a volume of 100 mm^3. […]
Mortality checks were conducted daily. Body weight of the mice was determined twice a week. […] Weight loss was calculated as percentage change in mean group body weight using the following formula: [(W−W0)/W0]×100, where ‘W’ represents mean body weight of the treated group at a particular day and ‘W0’ represents mean body weight of the same treated group at initiation of treatment. Tumor volumes (in mm3) were calculated after 21 days drug administration. […]

[2] = Pharmacokinetic determination, rat IV/PO study; type: in vivo; details: for MRT inf: read-out: MRT(0-∞)
Protocol: Male Sprague-Dawley rats were maintained on food and water ad libitum. They were housed in an individual ventilated caging system. The test compound at a dose of 5 mg/kg and 20 mg/kg was given i.v. and orally to SD rats respectively (3 animals per group). The appropriate quantity compound with free base (Wt.: 346.1) was accurately weighted into a tube and dissolved in NMP, vortexed to get a clear solution. 0.015N HCl in Saline was added and the solution was vortexed to yield a clear and colorless solution at 1 mg/mL for both intravenous and oral administration. The concentration of the test compound in the dosing solution was reconfirmed by HPLC method. […] Plasma samples were collected from retro-orbital puncture at pre-dose and 0.083, 0.25, 0.5, 1, 2, 4, 6, 8, and 24 hours post-dose. All samples and the dose formulation were stored at −20° C. until bioanalysis. The concentrations of the test compound in plasma were determined using a high performance liquid chromatography/mass spectrometry (HPLC/MS/MS) method.

[3] = male, Sprague-Dawley, plasma, IV (5 mg/kg)
[4] = male, Sprague-Dawley, plasma, PO (20 mg/kg)

| F* ([2]; PO (20 mg/kg) vs IV (5 mg/kg)) | AUC(0-inf) [2, 3] | AUC(0-t) [2, 3] | Cmax [2, 3] | Tmax [2, 3] | clearance [2, 3] | half-life [2, 3] | MRT inf [2, 3] | Vd ([2]; male, Sprague-Dawley, plasma, IV (5 mg/kg), read-out: Vz) | AUC(0-inf) [2, 4] | AUC(0-t) [2, 4] | Cmax [2, 4] | Tmax [2, 4] | half-life [2, 4] | MRT inf [2, 4] | Structure (SMILES) | anti-tumor activities in xenograft mice [1] | oral availability and t 1/2 after oral administration (in words) ([2]; oral administration) |
| --- | --- | --- | --- | --- | --- | --- | --- | --- | --- | --- | --- | --- | --- | --- | --- | --- | --- |
| – | – | – | – | – | – | – | – | – | – | – | – | – | – | – | CCCn1cc(-c2ccnc(Nc3ccc(C)c(S(=O)(=O)N4CCOCC4)c3)n2)c2ccncc21 [Compound 102, N-(4-Methyl-3-(morpholinosulfonyl)phenyl)-4-(1-propyl-1H-pyrrolo[2,3-c]pyridin-3-yl)pyrimidin-2-amine] | showed anti-tumor activities | – |
| 67.51% | 545 ng·h/mL | 543 ng·h/mL | 963 ng/mL | 4.98 min | 156 mL/min/kg | 42 min | 40.2 min | 9.6 L/kg | 1490 ng·h/mL | 1470 ng·h/mL | 895 ng/mL | 34.8 min | 74.4 min | 100 min | CCn1cc(-c2ccnc(Nc3cccc(S(N)(=O)=O)c3)n2)c2cccnc21 [Compound 18, 3-(4-(1-Ethyl-1H-pyrrolo[2,3-b]pyridin-3-yl)pyrimidin-2-ylamino)benzenesulfonamide] | – | This result showed that compound 18 has good oral availability and t 1/2 after oral administration. |

Reference: patent publication US8309550B2, “Kinase inhibitors and their use as pharmaceutical agents” (Shanghai Genomics, Inc., priority 2011, dated 2012)
